Where “and” joins values, the source holds several entries; their conditions need not be identical. Equal values may be shown once. Read-outs that look alike come from different tables or passages of the source.
Columns and labels:
[1] = target: T1, TrBgl2 (Trichoderma reesei, UniProt O93785); assay: MUG cleavage fluorescent kinetic assay (AC50 / Amax / IC50); type: biochemical
Procedure: A fluorescent kinetic assay was performed for library screening of TrBgl2 using 500 µM 4-methylumbelliferyl-β-D-glucopyranoside (MUG) in a total volume of 150 µL per well. Compounds dissolved in DMSO were added to each well to yield a final concentration from 1 to 2 mM. The reactions were performed in 160 mM phosphate–citrate buffer in pH 6.0, initiated by adding 20 µL of the enzyme to give a final concentration of 100 nM and were assayed at 40°C. The fluorescent 4-methylumbelliferyl release was recorded continuously at 355 nm excitation and 460 nm emission for 20 s using a BMG Labtech POLARstar OPTIMA plate reader. Control experiments were performed to evaluate the possibility of interference from the intrinsic fluorescence of compounds in the library by repeating the assay in the absence of the enzyme.
(§1) Assays were carried out in a 96 well plate (Black Nunc F96 MicroWell Plates) at 40 and 45°C for TrBgl2 and CcBglA, respectively, in 160 mM phosphate–citrate buffer in pH 6.0 and 2.5% DMSO. Reactions were initiated by the addition of 20 µL of protein to a final concentration of 100 nM, followed by 5 s of shaking. The fluorescent 4-methylumbelliferyl release was recorded continuously at 355 nm excitation and 460 nm emission for 20 s using a BMG Labtech POLARstar OPTIMA plate reader. Rates were calculated using GraphPad Prism 5.0 as the slope of the curve of the collected data. Corrections were made to the detected gradients to adjust for the inner filter effect of MUG and convert the gradients into units of µmol min^−1 according to a standard curve for MUG. The initial slopes were fitted to sigmoidal dose-response curves using GraphPad Prism 5.0 and the AC50 values extracted. Inhibition of TrBgl2 by isofagomine (IC50) was determined in similar manner to the AC50 values.

[2] = test system: E367Q TrBgl2; assay: Thermal shift assay (TSA); type: binding, Trichoderma reesei
Procedure: Thermal shift screens were performed in 96-well polypropylene PCR plates (Agilent 401334) with a final volume 25 µL/well. […] Melting data were collected using an Agilent Stratagene Mx3005P rtPCR machine ramping from 25 to 95°C at 30 s per degree. Data were analysed with a combination of the Agilent MxPro software, MTS [16], JTSA (http://paulsbond.co.uk/jtsa) and the DSF analysis spreadsheet in Excel.

[3] = test system: CcBglA; assay: MUG cleavage assay on CcBglA (selectivity); type: biochemical, Clostridium cellulovorans; details: MUG 500 µM, titration 63 µM to 8 mM
Procedure: as §1

[4] = target: T1, TrBgl2; assay: Protein-observed NMR chemical shift perturbation (1H-15N TROSY); type: binding; details: compound 8 mM (8 also 16 mM), 15N TrBgl2 120 µM
Procedure: For backbone chemical shift perturbations (CSPs), each sample was prepared with 120 µM ^15N isotope-labelled TrBgl2 or E367Q TrBgl2, 8 mM or 16 mM of compound 8 or 10, 5 mM of MUG substrate and 100 µM DSS in 50 mM TRIS buffer containing 100 mM NaCl and 10% D2O at pH 8.0. The final DMSO concentration was usually not above 3.8%(v/v). ^1H-^15N TROSY spectra of the enzyme with DMSO in the buffer were collected as controls. ^1H-^15N TROSY spectra were collected by using a Bruker standard pulse sequence (trosyetf3gpsi) with 128 scans (NS), 1.5 s delay between the scans (d1), 35 ppm spectra width (SW), 256-time domain data size (TD) and 117 ppm irradiation carrier frequency offset (O1P).
For IVL methyl group CSPs, each sample was prepared with 250 µM of ^15N, ^13C, ^2H and IVL methyl group specifically labelled TrBgl2, 8 mM of compound 8, in 50 mM TRIS buffer containing 100 mM NaCl and 10% D2O at pH 8.0. The final DMSO concentration was usually not above 3.8% (v/v). ^1H-^13C HSQC spectra of the enzyme with DMSO in the buffer were collected as controls. ^1H-^13C HSQC spectra were recorded by using a Bruker standard pulse sequence (hsqcctetgpsp) with 8 scans (NS), 1.5 s delay between the scans (d1), 30 ppm spectra width (SW), 256-time domain data size (TD) and 15 ppm irradiation carrier frequency offset (O1P).

[5] = target: T1, TrBgl2; assay: STD NMR ligand-observed binding; details: compound 500 µM, TrBgl2 20 µM; for binding to TrBgl2 by STD NMR: absence of isofagomine; for binding to TrBgl2 by STD NMR in presence of isofagomine: isofagomine 40 µM
Procedure: The samples contained 20 µM unlabelled TrBgl2, fragments at a concentration of 500 µM per compound and 100 µM sodium trimethylsilylpropanesulfonate (DSS) in 50 mM phosphate buffer containing 25 mM NaCl and 5% D2O at pH 6.0. The experiments were recorded by using a Bruker standard pulse sequence (stddiffesgp.3 [19]). The on-resonance frequency was set to 0.25 ppm and off-resonance irradiation was applied at 40 ppm. STD NMR spectra were collected with a total of 16 scans (NS), 5 s delay between the scans (d1), a saturation time of 4 s (d20) and 1.5 s acquisition time (AQ).

[6] = target: T1, TrBgl2; assay: Michaelis-Menten and covariation kinetics with MUG; type: biochemical
Procedure: Apparent KM and kcat values were calculated from a Michaelis–Menten curve fit to 9-point substrate titrations at a constant concentration of compounds. The covariation experiments used the same range of substrate concentrations across an activator and inhibitor concentration range. The data obtained from these experiments was fit to the nonessential activator and mixed-model inhibition equation, respectively.

[7] = Solubility of compound; type: physicochemical
[8] = titration of compound from 63 µM to 8 mM, substrate conc. 500 µM
[9] = E367Q TrBgl2 in the presence of MUG (4 mM), compound 4 mM
[10] = apo E367Q TrBgl2, compound 4 mM, without MUG
[11] = pH 6, titration of compound from 30 µM to 3.8 mM, substrate conc. 500 µM, read-out: Amax
[12] = titration of compound from 30 µM to 3.8 mM, substrate conc. 500 µM
[13] = pH 6, titration of compound from 63 µM to 8 mM, substrate conc. 500 µM, read-out: Amax

T1 sequence (O93785 entry or part of it): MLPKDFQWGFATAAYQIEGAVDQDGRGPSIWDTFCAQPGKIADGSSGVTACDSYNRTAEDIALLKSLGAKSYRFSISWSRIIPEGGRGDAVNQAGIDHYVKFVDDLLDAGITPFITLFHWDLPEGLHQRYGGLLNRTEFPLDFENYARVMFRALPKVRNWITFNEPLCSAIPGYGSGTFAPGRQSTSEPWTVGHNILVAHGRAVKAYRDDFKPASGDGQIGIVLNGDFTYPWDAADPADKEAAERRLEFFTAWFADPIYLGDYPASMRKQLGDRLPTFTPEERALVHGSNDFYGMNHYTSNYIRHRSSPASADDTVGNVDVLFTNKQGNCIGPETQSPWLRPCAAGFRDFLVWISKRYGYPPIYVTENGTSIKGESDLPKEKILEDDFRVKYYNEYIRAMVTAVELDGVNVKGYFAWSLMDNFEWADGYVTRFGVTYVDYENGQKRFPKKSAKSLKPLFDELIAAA

| SMILES | binding to TrBgl2 by STD NMR [5] | binding to TrBgl2 by STD NMR in presence of isofagomine [5] | Emax [1, 11] [%] | AC50 [1, 12] [µM] | Emax [1, 13] [%] | AC50 [1, 8] [µM] | also measured |
| --- | --- | --- | --- | --- | --- | --- | --- |
| S=C(Nc1ccc2nccnc2c1)N1CCOCC1 [Compound 10] | clear signal intensity | clear signal intensity | – | – | – | – | IC50 [1, 8]: 312 ± 32 µM; inhibition ([1]; titration of compound from 63 µM to 8 mM, substrate conc. 500 µM, read-out: Maximum inhibition): 96%; decrease of Tm [2, 9]: ~4 °C; decrease of Tm [2, 10]: ~4 °C; inhibition of CcBglA [3]: inhibited both enzymes to a similar degree; amide chemical shift changes on addition of compound (1H-15N TROSY) [4]: smaller but similar changes as seen for 8; α modifier (reversible mixed inhibition model) ([6]; covariation fit, MUG substrate): 3.65 |
| OC[C@H]1CNC[C@@H](O)[C@@H]1O [isofagomine, reference compound] | – | – | – | – | – | – | IC50 ([1]; inhibition of TrBgl2, MUG substrate): 0.53 ± 0.12 µM |
| Cc1ccc(C)c(NC(=S)N2CCOCC2)c1 [Compound 5] | – | – | 160 | > 4000 | – | – | – |
| Cc1cccc(C)c1NC(=S)N1CCCCC1CO (centres unmarked) [Compound 7] | – | – | – | – | 161 | 1530 ± 312 | – |
| S=C(Nc1ccccc1Cl)N1CCOCC1 [Compound 3] | – | – | 155 | > 4000 | – | – | – |
| Cc1cccc(C)c1NC(=S)N1CCOCC1 [Compound 1] | showed evidence of binding | binding was also observed | – | – | – | – | AC50 ([1]; MUG substrate 500 μM): 1000 µM and ~1000 µM; Emax ([1]; MUG substrate 500 μM, read-out: Amax (maximal activation obtained)): ~155%; improvement in kcat/KM ([6]; Michaelis-Menten analysis, MUG, in presence of 1 (3 mM) vs absence): approximately 2 fold |
| Cc1cccc(C)c1NC(=S)NCCO [Compound 9] | – | – | 128 | > 4000 | – | – | – |
| Cc1ccccc1NC(=S)N1CCOCC1 [Compound 4] | – | – | 139 | 1810 ± 96 | – | – | – |
| COc1ccccc1NC(=S)N1CCOCC1 [Compound 6] | – | – | – | – | 143 | > 4000 | – |
| CCN(CCO)C(=S)Nc1c(C)cccc1C [Compound 8] | clear signal intensity | clear signal intensity | – | – | ≤ 188 | > 4000 | solubility [7]: ≤ 16 mM; increase of Tm [2, 9]: ~1.2 °C; decrease of Tm [2, 10]: ~1 °C; amide chemical shift changes on addition of compound (1H-15N TROSY) [4]: indicating a specific binding event; α modifier (nonessential activator model) ([6]; covariation fit, MUG substrate): 0.64; β modifier (nonessential activator model, modifies kcat) ([6]; covariation fit, MUG substrate): 1.5; enhancement of substrate affinity ([6]; in the presence of activator): approximately 1.5 fold |

From article PMC7702302, “Fragment-derived modulators of an industrial β-glucosidase” (Biochemical Journal, 2020)
